{
  "source": "patent US12655116B2",
  "about": "“Substituted isophthalic acid diamides” (Bayer Aktiengesellschaft, priority 2020, dated 2026)",
  "key": {"AMARE [1]": {"tested_on": "AMARE", "assay": "Pre-emergence herbicidal action against AMARE", "format": "in vivo, Amaranthus retroflexus", "conditions": "Amaranthus retroflexus, 504 h, scored visually after 3 weeks vs untreated controls, 100% = plants have died, 0% = like control plants", "in_short": "(§1)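 Sandy loam pots, seeds covered with soil, then surface-treated with WP or EC formulations at 600–800 l/ha water plus 0.2% wetting agent. Greenhouse, 3 weeks. Percent damage vs untreated controls.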"}, "AMARE [2]": {"tested_on": "AMARE", "assay": "Post-emergence herbicidal action against AMARE", "format": "in vivo, Amaranthus retroflexus", "conditions": "Amaranthus retroflexus, 504 h, 20 g/ha, visual assessment about 3 weeks after treatment, 100% = plants have died, 0% = like control plants", "in_short": "(§2)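 Visual % rating (0% = as untreated, 100% = dead) ~3 wk after spraying one-leaf-stage plants grown in sandy loam; WP/EC in water at 600–800 l/ha, 0.2% wetting agent.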"}, "MATIN [3]": {"tested_on": "MATIN", "assay": "Post-emergence herbicidal action against MATIN", "format": "in vivo, Matricaria inodora", "conditions": "Tripleurospermum inodorum, 504 h, dosage 20 g/ha", "in_short": "as §2"}, "ABUTH [4]": {"tested_on": "ABUTH", "assay": "Post-emergence herbicidal action against ABUTH", "format": "in vivo, Abutilon theophrasti", "conditions": "Abutilon theophrasti, 504 h, visual assessment about 3 weeks after treatment vs untreated controls", "in_short": "as §2"}, "ALOMY [5]": {"tested_on": "ALOMY", "assay": "Post-emergence herbicidal action against ALOMY", "format": "in vivo, Alopecurus myosuroides", "conditions": "Alopecurus myosuroides, 504 h, visual assessment about 3 weeks after treatment vs untreated controls", "in_short": "as §2"}, "ABUTH [6]": {"tested_on": "ABUTH", "assay": "Pre-emergence herbicidal action against ABUTH", "format": "in vivo, Abutilon theophrasti", "conditions": "Abutilon theophrasti, 504 h", "in_short": "as §1"}, "VERPE [7]": {"tested_on": "VERPE", "assay": "Post-emergence herbicidal action against VERPE", "format": "in vivo, Veronica persica", "conditions": "Veronica persica, 504 h", "in_short": "as §2"}, "ECHCG [8]": {"tested_on": "ECHCG", "assay": "Post-emergence herbicidal action against ECHCG", "format": "in vivo, Echinochloa crus-galli", "conditions": "Echinochloa crus-galli, 504 h, dosage 20 g/ha", "in_short": "as §2"}, "DIGSA [9]": {"tested_on": "DIGSA", "assay": "Pre-emergence herbicidal action against DIGSA", "format": "in vivo, Digitaria sanguinalis", "conditions": "Digitaria sanguinalis, 504 h", "in_short": "as §1"}, "PHBPU [10]": {"tested_on": "PHBPU", "assay": "Post-emergence herbicidal action against PHBPU", "format": "in vivo, Pharbitis purpurea", "conditions": "Ipomoea purpurea, 504 h", "in_short": "as §2"}, "DIGSA [11]": {"tested_on": "DIGSA", "assay": "Post-emergence herbicidal action against DIGSA", "format": "in vivo, Digitaria sanguinalis", "conditions": "Digitaria sanguinalis, 504 h", "in_short": "as §2"}, "MATIN [12]": {"tested_on": "MATIN", "assay": "Pre-emergence herbicidal action against MATIN", "format": "in vivo, Matricaria inodora", "conditions": "Tripleurospermum inodorum, 504 h", "in_short": "as §1"}, "VERPE [13]": {"tested_on": "VERPE", "assay": "Pre-emergence herbicidal action against VERPE", "format": "in vivo, Veronica persica", "conditions": "Veronica persica, 504 h", "in_short": "as §1"}, "LOLRI [14]": {"tested_on": "LOLRI", "assay": "Pre-emergence herbicidal action against LOLRI", "format": "in vivo, Lolium rigidum", "conditions": "Lolium rigidum, 504 h, 80 g/ha", "in_short": "as §1"}, "ALOMY [15]": {"tested_on": "ALOMY", "assay": "Pre-emergence herbicidal action against ALOMY", "format": "in vivo, Alopecurus myosuroides", "conditions": "Alopecurus myosuroides, 504 h; 80 g/ha, pre-emergence, scored visually after 3 weeks vs untreated controls (100% = plants have died, 0% = like control plants)", "in_short": "as §1"}, "LOLRI [16]": {"tested_on": "LOLRI", "assay": "Post-emergence herbicidal action against LOLRI", "format": "in vivo, Lolium rigidum", "conditions": "Lolium rigidum, 504 h, dosage 20 g/ha", "experimental": "Seeds of monocotyledonous and dicotyledonous weed and crop plants are laid out in sandy loam soil in wood-fiber pots, covered with soil and cultivated in a greenhouse under good growth conditions. 2 to 3 weeks after sowing, the test plants are treated at the one-leaf stage. The compounds of the invention, formulated in the form of wettable powders (WP) or as emulsion concentrates (EC), are then sprayed onto the green parts of the plants in the form of an aqueous suspension or emulsion at a water application rate equivalent to 600 to 800 l/ha, with addition of 0.2% wetting agent. After the test plants have been left to stand in the greenhouse under optimal growth conditions for about 3 weeks, the action of the preparations is assessed visually in comparison to untreated controls (herbicidal action in percent (%): 100% activity=the plants have died, 0% activity=like control plants). […] The tables below illustrate, in an illustrative manner, the post-emergence herbicidal action of the compounds of the invention, the herbicidal activity being stated in percent."}, "POLCO": {"tested_on": "POLCO", "assay": "Pre-emergence herbicidal action against POLCO", "format": "in vivo, Polygonum convolvulus", "conditions": "Fallopia convolvulus, 504 h, dosage 80 g/ha", "in_short": "as §1"}, "AVEFA": {"tested_on": "AVEFA", "assay": "Post-emergence herbicidal action against AVEFA", "format": "in vivo, Avena fatua", "conditions": "Avena fatua, 504 h, 20 g/ha, visual assessment about 3 weeks after treatment, 100% = plants have died, 0% = like control plants", "in_short": "as §2"}, "SETVI [17]": {"tested_on": "SETVI", "assay": "Post-emergence herbicidal action against SETVI", "format": "in vivo, Setaria viridis", "conditions": "Setaria viridis, 504 h, dosage 20 g/ha", "in_short": "as §2"}, "SETVI [18]": {"tested_on": "SETVI", "assay": "Pre-emergence herbicidal action against SETVI", "format": "in vivo, Setaria viridis", "conditions": "Setaria viridis, 504 h, dosage 80 g/ha", "in_short": "as §1"}, "VIOTR [19]": {"tested_on": "VIOTR", "assay": "Post-emergence herbicidal action against VIOTR", "format": "in vivo, Viola tricolor", "conditions": "Viola tricolor, 504 h, 20 g/ha", "in_short": "as §2"}, "VIOTR [20]": {"tested_on": "VIOTR", "assay": "Pre-emergence herbicidal action against VIOTR", "format": "in vivo, Viola tricolor", "conditions": "Viola tricolor, 504 h", "in_short": "as §1"}, "ECHCG [21]": {"tested_on": "ECHCG", "assay": "Pre-emergence herbicidal action against ECHCG", "format": "in vivo, Echinochloa crus-galli", "conditions": "Echinochloa crus-galli, 504 h, 80 g/ha", "in_short": "as §1"}, "PHBPU [22]": {"tested_on": "PHBPU", "assay": "Pre-emergence herbicidal action against PHBPU", "format": "in vivo, Pharbitis purpurea", "conditions": "Ipomoea purpurea, 504 h, dosage 80 g/ha", "in_short": "as §1"}},
  "data": [
    {"smiles": "CNC(=O)c1c(C(F)(F)C(F)(F)F)ccc(C(=O)Nc2nnnn2C)c1Cl", "note": "[Example 1-165]", "values": [
      {"measurement": "pest or weed control at 20 g/ha", "setting": "AMARE [1]; 20 g/ha", "result": 100, "unit": "%"},
      {"measurement": "pest or weed control at 80 g/ha", "setting": "AMARE [1]; 80 g/ha", "result": 100, "unit": "%"},
      {"measurement": "pest or weed control at 20 g/ha", "setting": "AMARE [2]", "result": 90, "unit": "%"},
      {"measurement": "pest or weed control at 20 g/ha", "setting": "MATIN [3]", "result": 80, "unit": "%"},
      {"measurement": "pest or weed control at 5 g/ha", "setting": "ABUTH [4]; dosage 5 g/ha", "result": 90, "unit": "%"},
      {"measurement": "pest or weed control at 20 g/ha", "setting": "ABUTH [4]; dosage 20 g/ha", "result": 90, "unit": "%"},
      {"measurement": "pest or weed control at 5 g/ha", "setting": "ALOMY [5]; dosage 5 g/ha", "result": 90, "unit": "%"},
      {"measurement": "pest or weed control at 20 g/ha", "setting": "ALOMY [5]; dosage 20 g/ha", "result": 100, "unit": "%"},
      {"measurement": "pest or weed control at 80 g/ha", "setting": "ABUTH [6]; 80 g/ha, scored visually after 3 weeks vs untreated controls (100% = plants have died, 0% = like control plants)", "result": 100, "unit": "%"},
      {"measurement": "pest or weed control at 20 g/ha", "setting": "ABUTH [6]; dosage 20 g/ha, scored visually after 3 weeks vs untreated controls, 100% = plants have died, 0% = like control plants, read-out: Pre-emergence action against ABUTH (herbicidal activity in percent)", "result": 90, "unit": "%"},
      {"measurement": "pest or weed control at 5 g/ha", "setting": "VERPE [7]; 5 g/ha", "result": 80, "unit": "%"},
      {"measurement": "pest or weed control at 20 g/ha", "setting": "VERPE [7]; 20 g/ha", "result": 80, "unit": "%"},
      {"measurement": "pest or weed control at 20 g/ha", "setting": "ECHCG [8]", "result": 90, "unit": "%"},
      {"measurement": "pest or weed control at 20 g/ha", "setting": "DIGSA [9]; dosage 20 g/ha", "result": 100, "unit": "%"},
      {"measurement": "pest or weed control at 80 g/ha", "setting": "DIGSA [9]; dosage 80 g/ha", "result": 100, "unit": "%"},
      {"measurement": "pest or weed control at 5 g/ha", "setting": "PHBPU [10]; dosage 5 g/ha", "result": 90, "unit": "%"},
      {"measurement": "pest or weed control at 20 g/ha", "setting": "PHBPU [10]; dosage 20 g/ha", "result": 90, "unit": "%"},
      {"measurement": "pest or weed control at 5 g/ha", "setting": "DIGSA [11]; 5 g/ha", "result": 90, "unit": "%"},
      {"measurement": "pest or weed control at 20 g/ha", "setting": "DIGSA [11]; 20 g/ha", "result": 90, "unit": "%"},
      {"measurement": "pest or weed control at 20 g/ha", "setting": "MATIN [12]; dosage 20 g/ha", "result": 100, "unit": "%"},
      {"measurement": "pest or weed control at 80 g/ha", "setting": "MATIN [12]; dosage 80 g/ha", "result": 100, "unit": "%"},
      {"measurement": "pest or weed control at 20 g/ha", "setting": "VERPE [13]; dosage 20 g/ha", "result": 80, "unit": "%"},
      {"measurement": "pest or weed control at 80 g/ha", "setting": "VERPE [13]; dosage 80 g/ha", "result": 100, "unit": "%"},
      {"measurement": "pest or weed control at 80 g/ha", "setting": "LOLRI [14]", "result": 80, "unit": "%"},
      {"measurement": "pest or weed control at 80 g/ha", "setting": "ALOMY [15]", "result": 100, "unit": "%"},
      {"measurement": "pest or weed control at 20 g/ha", "setting": "LOLRI [16]", "result": 80, "unit": "%"},
      {"measurement": "pest or weed control at 80 g/ha", "setting": "POLCO", "result": 90, "unit": "%"},
      {"measurement": "pest or weed control at 20 g/ha", "setting": "AVEFA", "result": 90, "unit": "%"},
      {"measurement": "pest or weed control at 20 g/ha", "setting": "SETVI [17]", "result": 90, "unit": "%"},
      {"measurement": "pest or weed control at 80 g/ha", "setting": "SETVI [18]", "result": 100, "unit": "%"},
      {"measurement": "pest or weed control at 20 g/ha", "setting": "VIOTR [19]", "result": 80, "unit": "%"},
      {"measurement": "pest or weed control at 20 g/ha", "setting": "VIOTR [20]; dosage 20 g/ha", "result": 90, "unit": "%"},
      {"measurement": "pest or weed control at 80 g/ha", "setting": "VIOTR [20]; dosage 80 g/ha", "result": 100, "unit": "%"},
      {"measurement": "pest or weed control at 80 g/ha", "setting": "ECHCG [21]", "result": 100, "unit": "%"},
      {"measurement": "pest or weed control at 80 g/ha", "setting": "PHBPU [22]", "result": 100, "unit": "%"}
    ]}
  ]
}
